Data on ten molecules can be found in patent US20220009909A1, “ADAMTS INHIBITORS, PREPARATION METHODS AND MEDICINAL USES THEREOF” (Eternity Bioscience Inc., priority 2020, published 2022).

In assay [1] the test system is mouse femoral head cartilage. In words: Mouse cartilage explant assay (IL-1α induced GAG release). Conditions: inhibition of GAG release, IL-1α 1 ng/mL, 72 hours; for inhibition at 2 µM: compound 2 μM, read-out: Inhibiton % at 2 μM; for inhibition at 20 µM: compound 20 μM. The format is cell-based. The method, then:
In this assay, fresh mouse femoral head cartilage was treated with IL-1a protein (Sigma-Aldrich, 12778) in culture media, which induced the cartilage catabolism. Then, the GAGs attached to the cleaved aggrecan fragments (released in the media) and the GAGs attached to the intact aggrecan were measured by dimethylmethylene blue dye in the Glycosaminoglycans Assay Kit (Chondrex, 6022).
Femoral head cartilage samples were isolated from mice (25 days old, male, C57BL/6, from Charles River Lab) and put into 2.0 mL tubes filled-up with media (DMEM, 10% FBS, 4 mM Glutamine, penicillin-streptomycin, 20 mM HEPES). 200 μl of media without FBS was added to each well of a 48-well plate, and one piece of cartilage was transferred to a well in the plate. Then the media was aspirated, and compounds and IL-1α protein were added to the plate in a total volume of 400 μl of fresh media without FBS. The final concentration of IL-1α was 1 ng/mL. The plate was incubated at 37° C. for 72 hours in a humidified incubator with 5% CO2 supply.
The supernatant was transferred to a 1.5 mL tube and kept at −20° C. Each cartilage sample was transferred to another 1.5 mL tube containing 400 μl of freshly made papain solution. The papain solution contained 125 μg/mL papain (Sigma-Aldrich, P3125), 0.1 M sodium acetate (Sigma-Aldrich. S7899), pH 5.5 and 5 mM EDTA and 5 mM L-cysteine-HCl (Sigma-Aldrich, C7880). The cartilage samples were kept rocking in a 60° C. water bath for 24 hours.
The lysates were vortexed for 10 seconds and spinned at 10,000 rpm for 2 minutes. Both the supernatant and the lysate samples were diluted with PBS and mixed with 100 μL of dye from the Glycosaminoglycans Assay Kit. The optical density from each well was determined with a TECAN plate reader set to a wavelength of 525 nm,
The concentrations of GAGs in the supernatant and lysates were determined based on the standard curve with a dose range of chondroitin sulfate provided in the kit. The percentage of GAG release was calculated as the following: […]
The test compound effect was expressed as the percent of inhibition using the following formula: […]

Assay [2] deals with T1, ADAMTS-5 recombinant protein (Homo sapiens, UniProt Q9UNA0).
T1 construct: purchased R&D Systems 2198-AD
T1 sequence (Q9UNA0 262-622 limits assumed): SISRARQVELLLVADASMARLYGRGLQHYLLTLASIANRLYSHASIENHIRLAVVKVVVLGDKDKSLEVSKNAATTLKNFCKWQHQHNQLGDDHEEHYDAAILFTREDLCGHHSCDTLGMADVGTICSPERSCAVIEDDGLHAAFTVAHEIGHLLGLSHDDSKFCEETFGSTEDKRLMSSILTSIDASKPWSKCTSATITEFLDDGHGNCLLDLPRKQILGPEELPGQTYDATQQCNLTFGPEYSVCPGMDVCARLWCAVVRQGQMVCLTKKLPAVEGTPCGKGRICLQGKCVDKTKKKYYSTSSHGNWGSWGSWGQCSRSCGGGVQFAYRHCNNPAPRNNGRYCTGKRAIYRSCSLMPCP
Briefly: In vitro fluorescence (FRET-peptide) enzymatic assay of ADAMTS-5 activity. The format is biochemical. Conditions: FRET peptide substrate 8 μM, 10 nM enzyme, 37° C. 3 hours. The method, then: (§1) A FRET (fluorescence resonance energy transfer) peptide was cleaved by recombinant ADAMTS-4 or ADAMTS-5 proteins into two separate fragments resulting in an increase of fluorescence signal which was quantified. The peptide was 5-FAM-TEGEARGSVILLK (5-TAMRA)K—NH2, customized from ANASPEC. ADAMTS-4 recombinant protein (4307-AD) and ADAMTS-5 recombinant protein (2198-AD) were purchased from R&D Systems.
(§2) An assay buffer containing 50 mM HEPES pH 7.5, 100 mM NaCl, 5 mM CaCl2, 0.1% CHAPS and 5% Glycerol was prepared. A volume of 2.5 μl of compound in the assay buffer was dispensed to a 384-well plate, and 2.5 μl of ADAMTS-4 or ADAMTS-5 protein (final concentration in the reaction was 10 nM) was added. The compounds and proteins were pre-incubated at room temperature for 15 minutes. Then, 5 μl of substrate was added to each well. The final substrate concentrations for ADAMTS-4 and ADAMTS-5 were 15 μM and 8 μM, respectively. The fluorescence signal in each well was determined, after incubation at 37° C. for 3 hours, on a TECAN plate reader (Excitation, 490 nm; Emission, 520 nm).
(§3) The data was inputted into GraphPad Prism, and the IC50 values were calculated using function “log (inhibitor) vs. response-Variable slope (four parameters)”, (See Table 1)

For assay [3], the target named is T2, ADAMTS-4 recombinant protein (Homo sapiens, UniProt O75173).
T2 construct: purchased R&D Systems 4307-AD
T2 sequence (O75173 213-685 limits assumed): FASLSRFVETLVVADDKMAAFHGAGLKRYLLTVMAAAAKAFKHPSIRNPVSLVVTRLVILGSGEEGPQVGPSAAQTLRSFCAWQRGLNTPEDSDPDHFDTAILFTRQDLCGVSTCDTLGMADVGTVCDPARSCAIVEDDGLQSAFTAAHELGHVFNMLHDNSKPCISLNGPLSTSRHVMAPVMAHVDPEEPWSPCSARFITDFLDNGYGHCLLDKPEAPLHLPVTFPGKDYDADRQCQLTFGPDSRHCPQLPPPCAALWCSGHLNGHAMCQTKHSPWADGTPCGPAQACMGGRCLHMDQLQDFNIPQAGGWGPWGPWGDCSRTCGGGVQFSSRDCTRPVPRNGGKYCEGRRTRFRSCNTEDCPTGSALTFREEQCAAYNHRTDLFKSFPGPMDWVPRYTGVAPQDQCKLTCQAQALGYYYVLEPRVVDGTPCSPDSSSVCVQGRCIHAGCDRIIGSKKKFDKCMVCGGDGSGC
In words: In vitro fluorescence (FRET-peptide) enzymatic assay of ADAMTS-4 activity. The class given is biochemical. Conditions: FRET peptide substrate 15 μM, 10 nM enzyme, 37° C. 3 hours. The method, then: as §1, §2, §3

The target of assay [4] is T1, ADAMTS-5 recombinant protein. Briefly: Aggrecan-IGD enzymatic assay for ADAMTS-5 inhibitors (ARGSVIL-peptide ELISA). The format is biochemical. Particulars: aggrecan-IGD protein substrate, 37° C. 45 minutes. The method, then: In this assay, the enzymatic activity of recombinant ADAMTS-5 protein (2198-AD, R&D Systems) was assayed with a protein substrate, the aggrecan IGD protein. The aggrecan IGD protein is a polypeptide connecting human aggrecan globular domains 1 and 2 (T331-G458) expressed in E. coli with a C-terminal His-tag (BIOTEZ, 30411000). The enzymatic product ARGSVIL-peptide was detected using an ELISA kit from BioTEZ (30510111). An assay buffer containing 50 mM HEPES pH 7.5, 100 mM NaCl, 5 mM CaCl2, 0.1% CHAPS and 5% Glycerol was prepared. Recombinant ADAMTS-5 protein was diluted to 0.3 nM in the assay buffer. Ten μL of buffer and 10 μl of compound solution was transferred to each well of a 96-well plate and incubated at room temperature for 15 minutes. Substrate aggrecan-IGD was diluted to 100 nM with the assay buffer and 20 μl was added to each well. The plate was incubated at 37° C. for 45 minutes. After incubation, the newly generated epitope ARGSVIL-peptides were measured using the Aggrecanase Activity ELISA Assay Kit following the manufacturer's instructions. Then, 100 μl of stop solution was added and the absorbance of each well was read at 450 nm, using […] as reference on a TECAN plate reader.
A standard curve of the ELISA assay was generated in GraphPad Prism using Sigmoidal 4PL function and the corresponding peptide concentrations were calculated based on the standard curve. The IC50 values were calculated using function “log (inhibitor) vs. response-Variable slope (four parameters)”. (See Table 2).

For the molecule `O=C1NC(=O)C(CNC(=O)N2Cc3ccc(C(F)(F)F)cc3C2)(C2CC2)N1` (stereo not shown) [Example 4, N-((4-cyclopropyl-2,5-dioxoimidazolidin-4-yl)methyl)-5-(trifluoromethyl)isoindoline-2-carboxamide], in assay [1], the inhibition at 2 µM was 0%. The inhibition at 20 µM in assay [1] stood at 94%. Further, the IC50 amounted to 100 nM in assay [2], 280 nM in assay [3] and 140 nM in assay [4].
On to `CC1c2cc(Cl)c(Cl)cc2CN1C(=O)NC[C@@]1(C2CC2)NC(=O)NC1=O` (stereo partly drawn) [Example 2, 5,6-dichloro-N—(((R)-4-cyclopropyl-2,5-dioxoimidazolidin-4-yl)methyl)-1-methylisoindoline-2-carboxamide], for which the IC50 was 36 nM in assay [2], 42 nM in assay [3] and 44 nM in assay [4].
As for `C[C@@H]1c2cc(C(F)(F)F)c(Cl)cc2CN1C(=O)NC[C@@]1(C2CC2)NC(=O)NC1=O` [Example 8-1, (R)-5-chloro-N—(((R)-4-cyclopropyl-2,5-dioxoimidazolidin-4-yl)methyl)-1-methyl-6-(trifluoromethyl)isoindoline-2-carboxamide], the inhibition at 2 µM in assay [1] turned out to be 61%. In assay [1], the inhibition at 20 µM came to 95%. Also, the values for the IC50 in assay [2], in assay [3] and in assay [4] were 8 nM, 12 nM and 17 nM, respectively.
As for `C[C@@H]1c2cc(Cl)c(Cl)cc2CN1C(=O)NC[C@@]1(C2CC2)NC(=O)NC1=O` [Example 2-1, (R)-5,6-dichloro-N—(((R)-4-cyclopropyl-2,5-dioxoimidazolidin-4-yl)methyl)-1-methylisoindoline-2-carboxamide], the inhibition at 2 µM in assay [1] was found to be 14%. Further, in assay [1], the inhibition at 20 µM was found to be 86%. Besides, the half-maximal inhibitory concentration (IC50) is 9 nM in assay [2], 34 nM in assay [3] and 17 nM in assay [4].
With `O=C1NC(=O)C(CNC(=O)N2Cc3cc(Cl)c(Cl)cc3C2)(C2CC2)N1` (stereo not shown) [Example 1, 5,6-dichloro-N-((4-cyclopropyl-2,5-dioxoimidazolidin-4-yl)methyl)isoindoline-2-carboxamide], the half-maximal inhibitory concentration (IC50) in assay [2] came out at 38 nM; in assay [3] it was 31 nM; in assay [4], 60 nM.
For `O=C1NC(=O)[C@](CNC(=O)N2Cc3cc(Cl)c(C(F)(F)F)cc3C2)(C2CC2)N1` [Example 3, (R)-5-chloro-N-((4-cyclopropyl-2,5-dioxoimidazolidin-4-yl)methyl)-6-(trifluoromethyl)isoindoline-2-carboxamide], the concentration for half-maximal inhibition (IC50) stood at 40 nM in assay [2], 39 nM in assay [3] and 40 nM in assay [4].
Consider `O=C1NC(=O)[C@](CNC(=O)N2Cc3cc(Cl)c(Cl)cc3C2)(C2CC2)N1` [Example 1-2, (R)-5,6-dichloro-N-((4-cyclopropyl-2,5-dioxoimidazolidin-4-yl)methyl)isoindoline-2-carboxamide], for which the inhibition at 2 µM in assay [1] amounted to 47%. This molecule also came in with an inhibition at 20 µM in assay [1] of 87%. The IC50 in assay [2] is 23 nM; in assay [3], 16 nM; in assay [4], 26 nM.
For `CC1c2cc(C(F)(F)F)c(Cl)cc2CN1C(=O)NC[C@@]1(C2CC2)NC(=O)NC1=O` (stereo partly drawn) [Example 8, 5-chloro-N—(((R)-4-cyclopropyl-2,5-dioxoimidazolidin-4-yl)methyl)-1-methyl-6-(trifluoromethyl)isoindoline-2-carboxamide], the figures for the IC50 in assay [2], in assay [3] and in assay [4] were 22 nM, 33 nM and 34 nM, respectively.
Take `[2H]C1([2H])c2cc(Cl)c(C(F)(F)F)cc2C(C)N1C(=O)NC[C@@]1(C2CC2)NC(=O)NC1=O` (stereo partly drawn) [Example 9, 5-chloro-N—(((R)-4-cyclopropyl-2,5-dioxoimidazolidin-4-yl)methyl)-1-methyl-6-(trifluoromethyl)isoindoline-3,3-d2-2-carboxamide]: the results for the IC50 in assay [2], in assay [3] and in assay [4] were 30 nM, 53 nM and 34 nM, respectively.
`[2H]C1([2H])c2cc(Cl)c(Cl)cc2C(C)N1C(=O)NC[C@@]1(C2CC2)NC(=O)NC1=O` (stereo partly drawn) [Example 11, 5,6-dichloro-N—(((R)-4-cyclopropyl-2,5-dioxoimidazolidin-4-yl)methyl)-1-methylisoindoline-3,3-d2-2-carboxamide]: the IC50 in assay [2] is 30 nM; in assay [3] it was 92 nM.
